Measured values taken from patent publication US5780025A, “Compositions and methods for the synthesis and assay of enkephalinase” (Genentech, Inc., priority 1993, dated 1998).

Biological target: T1, purified rat kidney enkephalinase (Rattus norvegicus, UniProt P07861)
T1 construct: Rat kidney enkephalinase was purified to apparent homogeneity; from tissue; host or cells: rat kidney (male rats, membrane fraction, Triton X-100 solubilised)
T1 sequence (P07861 1-750): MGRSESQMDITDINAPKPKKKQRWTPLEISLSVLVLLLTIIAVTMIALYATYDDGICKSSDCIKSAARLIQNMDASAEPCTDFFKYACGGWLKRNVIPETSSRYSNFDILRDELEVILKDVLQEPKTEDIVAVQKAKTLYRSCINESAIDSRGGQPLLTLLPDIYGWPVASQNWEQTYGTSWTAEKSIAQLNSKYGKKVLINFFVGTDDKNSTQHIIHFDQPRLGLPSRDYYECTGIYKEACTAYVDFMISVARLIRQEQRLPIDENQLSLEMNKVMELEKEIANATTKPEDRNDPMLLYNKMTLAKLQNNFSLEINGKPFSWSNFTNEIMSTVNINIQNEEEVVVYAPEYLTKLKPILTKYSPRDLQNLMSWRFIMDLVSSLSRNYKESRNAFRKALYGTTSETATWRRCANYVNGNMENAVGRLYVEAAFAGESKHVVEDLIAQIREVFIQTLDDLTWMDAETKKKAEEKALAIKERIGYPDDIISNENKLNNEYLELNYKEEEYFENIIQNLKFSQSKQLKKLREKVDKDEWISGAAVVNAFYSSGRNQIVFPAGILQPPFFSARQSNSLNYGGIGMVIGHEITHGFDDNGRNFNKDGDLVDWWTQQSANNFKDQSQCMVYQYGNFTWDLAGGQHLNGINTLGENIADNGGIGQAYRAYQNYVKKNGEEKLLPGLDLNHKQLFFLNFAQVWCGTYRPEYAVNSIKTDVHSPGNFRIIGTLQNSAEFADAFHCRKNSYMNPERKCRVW
Test: HPLC analysis of the hydrolysis of peptides by enkephalinase, without and with thiorphan
Type: biochemical
Conditions: 100 nM thiorphan; peptides 1 mM, 1 hr at 37° C., 5 ng enzyme

inhibition of the hydrolysis of all substrates: completely inhibited
Compound: O=C(O)CNC(=O)C(CS)Cc1ccccc1 (stereo not shown) [Thiorphan]
